{
  "source": "patent US20160220574A1",
  "about": "“NSAID AND SIGMA RECEPTOR LIGAND COMBINATIONS” (LABORATORIOS DEL DR. ESTEVE, S.A., priority 2013, published 2016)",
  "key": {"[1]": {"test_system": "mechanical allodynia of the post-operative pain model in rats", "assay": "Mechanical allodynia (von Frey filaments) in the post-operative pain model (plantar incision) in rats", "assay_type": "in vivo", "settings": "for doses producing significant effect, Sigma antagonist alone: BD1063 alone 20, 40 and 80 mg/kg, compound 63.HCl alone 10, 20, 40 and 80 mg/kg", "protocol": "The induction of anesthesia in rats was performed with 3% isofluran for veterinary use, employing an Ohmeda vaporizer and an anesthesia chamber. Anesthesia was kept during the surgical operation by a tube which directs the isofluran vapors to the animal's snout. Once the rats were anesthetized, they were laid down in a prone position and their right hind paws were cleaned out with alcohol. Then, a skin incision in the hindpaw of about 10 mm was made by means of a scalpel, starting about 5 mm from the heel and extending toward the toes. Fascia was located and by means of curve scissors muscle was elevated and a longitudinal incision of about 5 mm was made, thus the muscle origin and insertion remained intact. The skin of the paw was stitched with a suturing stitch with breaded silk (3.0) and the wound was cleaned out with povidone. The assessment was performed 30 minutes after the administration of product and always 4 hours after the plantar incision. The analysis was carried out evaluating the mechanical allodynia. It was tested using von Frey filaments: Animals were placed in methacrylate cylinders on an elevated surface, with metallic mesh floor perforated in order to apply the filaments. […] The animal's response to pain was manifested by the withdrawal of the paw as a consequence of the painful stimulus caused by a filament."}, "[2]": {"test_system": "σ1 receptors", "settings": "rodent brain membranes and human neuroblastoma cells, cited from earlier work"}, "[3]": {"test_system": "D2 receptors", "settings": "rodent brain membranes and human neuroblastoma cells; compared with haloperidol; cited from earlier work"}, "[4]": {"test_system": "sigma-1 receptors", "settings": "both in experimental animals and human cells; cited from earlier work"}},
  "note": "Read-outs that look alike come from different tables or passages of the source.",
  "data": [
    {"smiles": "CN1CCN(CCc2ccc(Cl)c(Cl)c2)CC1", "note": "[BD1063, 1-[2-(3,4-dichlorophenyl)ethyl]-4-methylpiperazine]", "values": [
      {"measurement": "ED50", "setting": "[1]; Rattus norvegicus, rats, compound alone, administered 3.5 hours after surgery, assessed 30 minutes after administration, 4 hours after plantar incision, read-out: ED50 (dose-dependent effect), Sigma antagonist alone", "result": 56.2, "unit": "mg/kg"},
      {"measurement": "doses producing significant effect, Sigma antagonist alone", "setting": "[1]; rats", "result": "significant effect only at 40 and 80 mg/kg"}
    ]},
    {"smiles": "Cc1ccc(-c2cc(C(F)(F)F)nn2-c2ccc(S(N)(=O)=O)cc2)cc1", "note": "[Celecoxib]", "values": [
      {"measurement": "Mean of the porcentage of analgesia in the post-operative pain model, Compounds alone", "setting": "[1]; dose 0.625 mg/kg", "result": 13, "unit": "%"},
      {"measurement": "effect of NSAID alone", "setting": "[1]; rats, NSAID alone 0.625 mg/kg", "result": "no significant effect"}
    ]},
    {"smiles": "O=C(O)Cc1ccccc1Nc1c(Cl)cccc1Cl", "note": "[Diclofenac]", "values": [
      {"measurement": "Mean of the porcentage of analgesia in the post-operative pain model, Compounds alone", "setting": "[1]; dose 0.625 mg/kg", "result": 13, "unit": "%"},
      {"measurement": "effect of NSAID alone", "setting": "[1]; rats, NSAID alone 0.312 mg/kg", "result": "no significant effect"}
    ]},
    {"smiles": "CC(C)Cc1ccc(C(C)C(=O)O)cc1", "note": "(centres unmarked) [Ibuprofen]", "values": [
      {"measurement": "Mean of the porcentage of analgesia in the post-operative pain model, Compounds alone", "setting": "[1]; dose 0.625 mg/kg", "result": 16, "unit": "%"},
      {"measurement": "effect of NSAID alone", "setting": "[1]; rats, NSAID alone 0.625 mg/kg", "result": "no significant effect"}
    ]},
    {"smiles": "Cc1c(N(C)CS(=O)(=O)O)c(=O)n(-c2ccccc2)n1C", "note": "[Metamizole]", "values": [
      {"measurement": "Mean of the porcentage of analgesia in the post-operative pain model, Compounds alone", "setting": "[1]; dose 0.156 mg/kg", "result": 14, "unit": "%"},
      {"measurement": "effect of NSAID alone", "setting": "[1]; rats, NSAID alone 0.156 mg/kg", "result": "no significant effect"}
    ]},
    {"smiles": "COc1ccc2cc([C@H](C)C(=O)O)ccc2c1", "note": "[Naproxen]", "values": [
      {"measurement": "Mean of the porcentage of analgesia in the post-operative pain model, Compounds alone", "setting": "[1]; dose 0.312 mg/kg", "result": 13, "unit": "%"},
      {"measurement": "effect of NSAID alone", "setting": "[1]; rats, NSAID alone 0.312 mg/kg", "result": "no significant effect"}
    ]},
    {"smiles": "CC(=O)Nc1ccc(O)cc1", "note": "[Paracetamol]", "values": [
      {"measurement": "Mean of the porcentage of analgesia in the post-operative pain model, Compounds alone", "setting": "[1]; dose 20 mg/kg", "result": 13, "unit": "%"},
      {"measurement": "effect of NSAID alone", "setting": "[1]; rats, NSAID alone 20 mg/kg", "result": "no significant effect"}
    ]},
    {"smiles": "Cc1cc(OCCN2CCOCC2)nn1-c1ccc2ccccc2c1", "note": "[compound 63, 4-{2-[5-Methyl-1-(naphthalen-2-yl)-1H-pyrazol-3-yloxy]ethyl}morpholine]", "values": [
      {"measurement": "Mean of the porcentage of analgesia in the post-operative pain model, Compounds alone", "setting": "[1]; dose 10 mg/kg", "result": 2, "unit": "%"},
      {"measurement": "Mean of the porcentage of analgesia in the post-operative pain model, Compounds alone", "setting": "[1]; dose 20 mg/kg", "result": 15, "unit": "%"},
      {"measurement": "Mean of the porcentage of analgesia in the post-operative pain model, Compounds alone", "setting": "[1]; dose 40 mg/kg", "result": 43, "unit": "%"},
      {"measurement": "Mean of the porcentage of analgesia in the post-operative pain model, Compounds alone", "setting": "[1]; dose 80 mg/kg", "result": 41, "unit": "%"}
    ]},
    {"smiles": "Cc1cc(OCCN2CCOCC2)nn1-c1ccc2ccccc2c1.Cl", "note": "[compound 63.HCl, 4-{2-[5-Methyl-1-(naphthalen-2-yl)-1H-pyrazol-3-yloxy]ethyl}morpholine hydrochloride]", "values": [
      {"measurement": "doses producing significant effect, Sigma antagonist alone", "setting": "[1]; rats", "result": "significant effect only at 40 and 80 mg/kg"},
      {"measurement": "maximum effect / maximum efficacy, Sigma antagonist alone", "setting": "[1]; rats, compound alone (10, 20, 40 and 80 mg/kg), without sub-active dose of NSAID, 3.5 hours after surgery", "result": 43, "unit": "%"}
    ]},
    {"smiles": "OC1(c2ccc(Cl)cc2)CCNCC1", "note": "[metabolite I, 4-(4-chlorophenyl)-4-hydroxypiperidine]", "values": [
      {"measurement": "affinity for σ1 (sigma-1) receptors", "setting": "[2]", "result": "less affinity than haloperidol"},
      {"measurement": "affinity for D2 receptors", "setting": "[3]", "result": "no affinity"}
    ]},
    {"smiles": "OC(CCCN1CCC(O)(c2ccc(Cl)cc2)CC1)c1ccc(F)cc1", "note": "(centres unmarked) [metabolite II, 4-(4-chlorophenyl)-[…]-(4-fluorophenyl)-4-hydroxy-1-piperidinebutanol]", "values": [
      {"measurement": "affinity for σ1 (sigma-1) receptors", "setting": "[2]", "result": "less affinity than haloperidol"},
      {"measurement": "affinity for σ1 (sigma-1) receptors", "setting": "[2]; listed as Reduced haloperidol", "result": "high affinity (in the low nanomolar range)"},
      {"measurement": "affinity for D2 receptors", "setting": "[3]", "result": "much lower"},
      {"measurement": "blockade of sigma-1 receptors", "setting": "[4]", "result": "irreversible blockade"}
    ]}
  ]
}
